Tests used:
[1] = Reduction versus oxidation standard potentials (anhydrous DMSO); format: physicochemical; conditions: relative to CuPhMeTSM; FIG. 3
Excerpt: The low reduction potential or, phrased differently, the high copper affinity of the ATSM ligand for cupric ion (in the 2+ ionization state) prevents copper release in most tissues, but allows selective release of copper in hypoxic tissues or in cells with damaged mitochondrial electron transport chains; however, even slight modifications of the CuATSM compound (e.g., removing one or both methyl groups from the carbon atoms of the diimine functional groups) results in rapid copper release that can result in toxicity in SOD ALS models. […] Continued treatment thus is necessary to provide sufficient copper for CCS to complete the maturation of Cu,Zn SOD. But, such continued treatment also has the potential to cause toxicity due to greater copper intake. Furthermore, given the negative reduction potential of CuATSM, it is very difficult to reduce, which is reflected in the slow efficacy in replenishing SOD and COX extending over weeks. As a consequence, the majority of CuATSM (e.g., >95%) is eliminated in urine with copper still bound. […] See, for example, FIG. 3, which illustrates reduction (left) versus oxidation standard potentials (right) for ligand components (as determined in anhydrous DMSO). […]

[2] = test system: Cu,Zn SOD (human SOD); test: Mass spectrometric assay of mature/immature SOD in CNS tissue of treated CCS×SOD^WT transgenic mice; format: in vivo; conditions: CSS×SOD^WT transgenic mice; for increase in mature SOD compared to untreated SOD^WT mice: FIG. 4
Method: Tissue Preparation for SOD and Cytochrome c Oxidase assays—Whole brains and spinal cords were rapidly dissected from euthanized transgenic mice, immediately frozen in liquid nitrogen, and then stored at −80° C. until use. To prepare brain tissue for mass spectrometry or cytochrome c oxidase assay, frozen brains were first placed on a plate on top of a slab of dry ice so that the brittle frozen tissue could warm to a temperature that allowed sectioning with a razor blade (approx. −10° C.). Motor cortex and surrounding cerebrum was then sectioned to a thickness of approximately 1 mm with a razor blade. A 500 μm biopsy needle was used to isolate three ˜250 μg punches from each mouse tissue, which provided technical replicates for mass spectrometry and cytochrome c oxidase examples. Tissue punches were weighed using a Cahn 25 Automatic Electrobalance (Cerritos, CA, USA) with a sensitivity of ±0.1 μg. Tissue punches were homogenized for 12 seconds using a VWR Handheld cordless motorized homogenizer to a concentration of 5 μg tissue/μl of homogenization buffer. Homogenization buffer (made fresh daily) was 10 mM ammonium acetate, pH 5.0-5.1. For SOD measurements, 300 nM bovine SOD (Sigma) was added as an internal standard. The ratio of human SOD to the bovine SOD internal standard was used to calculate the concentration of human SOD detected in mouse tissue. After homogenizing, samples were centrifuged for 2 minutes at 16000×g at 4° C. in an Eppendorf 5415 R centrifuge to pellet cell debris. Supernatant was transferred to a clean tube for mass spectrometry or cytochrome c oxidase assays. […]
An LTQ-FT Ultra hybrid linear ion trap-Fourier transform ion cyclotron resonance mass spectrometer (Thermo, San Jose, Calif.) with a Finnigan Ion Max API source configured for electrospray ionization (ESI) in positive ion mode was used for all mass spectrometry experiments. All SOD quantitation was performed using the linear ion trap with scan range of 800 to 2000 m/z, which allowed for detection of SOD multiple charge states +9 through +13. […]
Data were quantified in a custom Matlab program. […]

[3] = Elimination of CuATSM in urine; conditions: in vivo
Excerpt: This crystallization and high melting point create issues with forming an orally-active CuATSM compound and prevents the use of solid dispersant methods to formulate the complex for oral delivery. As such, producing formulations having appropriate dosage limits of CuATSM remains a limitation in using this compound therapeutically, particularly in view of CuATSM's propensity to gradually crystalize out of matrices and form insoluble crystals. Large amounts of crystallized CuATSM passes into the bowels, and thereby contributes to gastrointestinal distress. […]
The low reduction potential or, phrased differently, the high copper affinity of the ATSM ligand for cupric ion (in the 2+ ionization state) prevents copper release in most tissues, but allows selective release of copper in hypoxic tissues or in cells with damaged mitochondrial electron transport chains; however, even slight modifications of the CuATSM compound (e.g., removing one or both methyl groups from the carbon atoms of the diimine functional groups) results in rapid copper release that can result in toxicity in SOD ALS models. […] See, for example, FIG. 3, which illustrates reduction (left) versus oxidation standard potentials (right) for ligand components (as determined in anhydrous DMSO). […]

[4] = test system: G93A SOD×CCS mice; test: Survival of G93A SOD×CCS mice under treatment; format: in vivo
Method: In this example, G93A SOD×CCS mice were treated with 50 mg/kg/day of CuPhMeTSM transdermally starting at 4 days of age. The compound was able to keep six G93A SOD×CCS mice alive for 300 days (n=6). Results are illustrated in FIG. 10.

[5] = test system: cytochrome c oxidase; test: Cytochrome c oxidase assay in brain and spinal cord of treated mice; format: in vivo; conditions: brain (FIG. 7A) and spinal cord (FIG. 7B); dermally with DMSO, 50 mg/kg/day once daily from four days of age, measured at day 21
Method: Tissue Preparation for SOD and Cytochrome c Oxidase assays—Whole brains and spinal cords were rapidly dissected from euthanized transgenic mice, immediately frozen in liquid nitrogen, and then stored at −80° C. until use. To prepare brain tissue for mass spectrometry or cytochrome c oxidase assay, frozen brains were first placed on a plate on top of a slab of dry ice so that the brittle frozen tissue could warm to a temperature that allowed sectioning with a razor blade (approx. −10° C.). Motor cortex and surrounding cerebrum was then sectioned to a thickness of approximately 1 mm with a razor blade. […] The ratio of human SOD to the bovine SOD internal standard was used to calculate the concentration of human SOD detected in mouse tissue. […]
Cytochrome c oxidase assay—The assay buffer included 30 uM reduced cytochrome c in 50 mM potassium phosphate buffer pH 7.0 containing 20 μM EDTA and 24 units/ml catalase. The final dilution of reduced cytochrome c stock should yield an absorbance at 550 nm of 0.7. […] To minimize interference from turbidity, the absorbance at 550 nm minus the absorbance at 580 nm was monitored. The change in absorbance was measured for one minute. Then, 2 μl of 100 mM sodium cyanide and the absorbance change was monitored for another 20 seconds. […]

[6] = test system: juvenile mice; test: Effect of free ligands on growth of juvenile mice; format: in vivo
Excerpt: Another limitation is that the ATSM ligand component of the CuATSM complex is pharmacologically active in binding metals and thus can react in potentially undesirable side reactions.

For `CN=C([S-])N/N=C(C)/C(C)=N/NC([S-])=NC.[Cu+2]` [CuATSM], the “oxidation wave: oxidized more easily than CuPhMeTSM by” value [1] was ~40 mV, the “increase in mature SOD compared to untreated SOD^WT mice” value [2] was 13 µM and the “fraction eliminated in urine with copper still bound” value [3] was > 95%.

In the case of `CNC1=NN=C(C)C(c2ccccc2)=NN=C(NC)[S][Cu][S]1` [CuPhMeTSM, copper phenylmethylTSM], the “toxicity from the treatment” value ([4]; G93A SOD×CCS mice, 50 mg/kg/day transdermally from 4 days of age) was “no toxicity apparent”, the “time mice were kept alive” value ([4]; G93A SOD×CCS mice, 50 mg/kg/day transdermally from 4 days of age, n=6) was 300 days and the “mice still alive after receiving treatment” value ([4]; low expressing G93A SOD mice crossed to CCS overexpressing mice, 50 mg/kg/day after four days of age, FIG. 10) was “nine out of 11”. For the same compound, the “increase in COX activity” value [5] was “nearly twice the extent of CuATSM”, the “increase in mature SOD compared to untreated SOD^WT mice” value [2] was 60 µM and the “decrease in amount of immature SOD” value ([2]; FIG. 6) was “decreased most”.

In the case of `CN/C(S)=N/N=C/C=N/N=C(\S)NC` [GTSM], the “effect on growth of juvenile mice” value [6] was “significant delay in growth”.

With `CN/C(S)=N/N=C/C(C)=N/N=C(\S)NC` [PTSM] the “effect on growth of juvenile mice” value [6] was “significant delay in growth”.

With “copper 4-nitrophenylmethylTSM [nitro analog]” the “increase in COX activity” value [5] was “not as effective as the CuPhMeTSM embodiment”.

Reference: patent US12403159B2, “Therapeutic metal complexes and ligands and methods of making and using the same” (Oregon State University, priority 2017, dated 2025)
